Results on 7 compounds are retold here after patent US6930131B2, “Aryl substituted 3-ethoxy phenyl trifluoromethane sulfonamides for the treatment of non-insulin dependent diabetes mellitus (NIDDM)” (Wyeth, priority 2002, dated 2005).

In data set [1] the test system is Hepatocytes Isolated and Cultured from Obese Zucker (fa/fa) Rats. As to the kind of experiment: Inhibition of glucose output from hepatocytes isolated and cultured from obese Zucker (fa/fa) rats. The conditions noted are these: inhibition of glucose output vs glucagon stimulated cultured hepatocytes. It is filed as cell-based, rat. The protocol:
Inhibition of Glucose Output from Hepatocytes Isolated and Cultured from Obese Zucker (fa/fa) Rats and their Lean Controls
Culturing of Hepatocytes: Isolated hepatocytes were plated on 12 well rat-tail collagen coated plates at a cell density of 5×10(5) cells/ml (approximately 1 ml of cell suspension per well). Following a one hour attachment period in which plates were incubated in a CO2 incubator at 37 deg C. (95% O2, 5% CO2), the supernatant containing unattached hepatocytes was removed and replaced with fresh media (1 ml/well) containing 1 μM dexamethasone and 100 pM insulin. Cells were maintained at 37 deg C. for 48 hours in a 95% O2, 5% CO2 environment. At the end of the first 24 hours, the media was aspirated off of the wells and replaced with fresh media containing the same concentrations of dexamethasone and insulin as described earlier. Treatment with Drugs and Assessment of Glucose Output: Drugs were routinely added with fresh media 24 hours after the initial attachment period. Eighteen hours later, media was aspirated and 500 μl of fresh Hank's buffer, Buffer D (glucose-free) supplemented with hormones, gluconeogenic substrates and drug(s) was added to each well and incubated for 4 hours. At the end of the 4 hour incubation, media from each well was removed and assayed for glucose content using the hexokinase/glucose-6-phosphate dehydrogenase coupled assay on the Boehringer Mannheim model 911 auto analyzer. Glucose concentration was expressed as μg/ml. Three of the plates from each treated group were frozen for subsequent determination of protein content. Two plates from each treatment group were used to assess the cytotoxicity of drug(s) and other agents as determined by the MTT (tetrazolium) dye reduction method (see below).
Assessment of Cytotoxicity using MTT Dye Reduction Assay: Two plates with no insulin treatment and two plates with 10^−8 M insulin treatment were used for the MTT dye reduction assay. Following removal of media from the plates for measurement of glucose output, wells were washed once with 1 ml of Hank's buffer (0.5% BSA). Aliquots of […] of Hank's buffer (1.1% BSA) and […] MTT solution (5 mg MTT/ml in phosphate buffered saline (PBS) filtered through 0.45 micron syringe filter) were added to each well. Plates were incubated for one hour at 37 deg C. After one hour incubation, the MTT dye solution was aspirated off and […] of HCL/isopropanol solution (8 ml of 1 N HCL and 192 ml of isopropanol) was added to each well. HCL/isopropanol solution was mixed by drawing liquid into a pipetman 2 to 3 times and then carefully transferred into a 96 well flat bottom plate. The 96 well plate was read on a plate reader (UV max kinetic microplate reader, Molecular Devices) at 570 nm test wavelength and 650 nm reference wavelength. The results were expressed as % inhibition from the control (lactate and glucagon treated) well.
Protein test procedure: Three plates with no insulin treatment and three plates with 10^−8 M insulin treatment were used for protein determination. After supernatant has been removed for determination of glucose output the plates were frozen and stored at −20 deg C. until ready to assay for protein content. Prior to determination of protein the plates were defrosted at room temperature for 15 minutes. An aliquot of 1 ml 0.1 N NaOH was added to each well. Plates were incubated at 4 deg C. overnight. Solutions for measurement of protein content were mixed by pipetting the NaOH solution up and down several time with a 1 ml pipette and then transferring to a small polyethylene tube. Protein determination was based on that of the Pierce BCA protein assay protocol (Pierce cat. no. 23223). A set of protein standards (0.2, 0.4, 0.6, 0.8, and 1 mg/ml BSA) was prepared by serial dilution of 1 mg/ml bovine serum albumin with 0.1 N NaOH, and 40 μl of each standard, or control blank was pipetted into a 96-well plate in duplicate. Each unknown protein sample (40 μl) was tested in triplicate. […]

Data set [2] relates to ob/ob (C57 B1/6J) mice. Briefly: Hypoglycemic effect in diabetic ob/ob mice. In kind it is in vivo, mouse. As for the experimental part:
Hypoglycemic Effect in Diabetic OB/OB Mice
Procedure: In each study, male or female ob/ob (C57 B1/6J) mice and their mean litermates (ob/+ or +/+, Jackson Laboratories) ages 2 to 5 months (10 to 65 g) were randomized according to plasma glucose into 4 groups of 10 mice. The mice were housed 5 per cage and were maintained on normal rodent chow with water ad libitum. Mice receive compound daily by gavage (suspended in 0.5 ml of 0.5% methyl cellulose); dissolved in the drinking water; or admixed in the diet. The dose of compounds given ranges from 2.5 to 200 mg/kg body weight/day. Body weight of fed animals was measured at the beginning of each week and doses for the entire week were calculated using this weight and were expressed in terms of the active moiety of the compound. Control mice receive vehicle only. […]
Measurements: The plasma was isolated by centrifugation and the concentration of glucose was measured enzymatically on an Abbott V. P. Analyzer and the plasma concentration of insulin was determined by radioimmunoassay (Heding, 1972)
Analysis of variance followed by Dunnett's Comparison Test (one-tailed) was used to estimate the significant difference between the plasma glucose values from the control group and the individual compound treated groups (CMS SAS Release 5.18). A compound will be considered active if the difference has a p<0.05.

Data set [3] relates to ob/ob (C57 B1/6J) mice. As to conditions: reference compound, 20 mg/kg/day; cited from earlier work.

One may read the IC50 as the midpoint of a concentration-inhibition curve. A word on the melting point: it is the temperature of the solid-liquid transition. Consider `O=S(=O)(Nc1cccc(CCOCc2csc(-c3ccc(Cl)cc3)n2)c1)C(F)(F)F` [Example 53, N-(3-{2-[2-(4-Chloro-phenyl)-thiazol-4-ylmethoxy]-ethyl}-phenyl)-C,C,C-trifluoro-methanesulfonamide], for which the melting point was 114 to 116 °C. The compound further gave an IC50 in data set [1] (Rattus norvegicus, Hepatocyte) of 10000 nM. Moreover, in data set [2] (10 mg/kg p.o.), the “Reduction in Plasma Glucose Day 1 (6 hr) p.o.” value is listed as −36% and the “Reduction in Plasma Glucose Day 3 (6 hr) p.o.” value is on record as −26%.
As to `O=S(=O)(Nc1cccc(CCOCc2ccc(-c3ccc(Cl)cc3)cc2Cl)c1)C(F)(F)F` [Example 23, N-{3-[2-(3-Chloro-4′-chloro-biphenyl-4-ylmethoxy)-ethyl]-phenyl}-C,C,C-trifluoro methane sulfonamide], in data set [1], the half-maximal inhibitory concentration (IC50) was found to be 1700 nM. Besides, in data set [2] (5 mg/kg p.o.), the “Reduction in Plasma Glucose Day 1 (6 hr) p.o.” value is given as −37% and the “Reduction in Plasma Glucose Day 3 (6 hr) p.o.” value is reported as −37%.
In data set [1], `COc1cc(-c2ccc(Cl)cc2)ccc1COCCc1cccc(NS(=O)(=O)C(F)(F)F)c1` [Example 26, N-{3-[2-(4′-Chloro-3-methoxy-biphenyl-4-ylmethoxy)-ethyl]-phenyl}-C,C,C-trifluoro methane sulfonamide] returned an IC50 of 2300 nM. For the same compound, in data set [2] (20 mg/kg p.o.), the “Reduction in Plasma Glucose Day 1 (6 hr) p.o.” value is recorded as −20% and the “Reduction in Plasma Glucose Day 3 (6 hr) p.o.” value is “+1”.
Turning to sodium metavanadate, the “lowering in plasma glucose” value in data set [3] is “significant lowering in plasma glucose”.
Compound `COc1cc(COCCc2cccc(NS(=O)(=O)C(F)(F)F)c2)ccc1-c1ccc(Cl)cc1` [Example 88, N-{3-[2-(4′-Chloro-2-methoxy-biphenyl-4-ylmethoxy)-ethyl]-phenyl}-C,C,C-trifluoromethane sulfonamide] returned a melting point of 88 to 90 °C. For the same compound, in data set [1] (Rattus norvegicus, Hepatocyte), the IC50 was determined as 4000 nM. Further, in data set [2] (25 mg/kg p.o.), the “Reduction in Plasma Glucose Day 1 (6 hr) p.o.” value is reported as −71 and the “Reduction in Plasma Glucose Day 3 (6 hr) p.o.” value is reported as −29.
In the case of `O=S(=O)(Nc1cccc(CCOCc2ccc(-c3ccc(Cl)cc3)cc2)c1)C(F)(F)F` [Example 7, N-{3-[2-(4′-Chloro-biphenyl-4-ylmethoxy)-ethyl]-phenyl}-C,C,C-trifluoromethane sulfonamide], the melting point lay within 69 to 70 °C. The same compound registered an IC50 in data set [1] (Rattus norvegicus, Hepatocyte) of 2500 nM. For the same compound, in data set [2] (5 mg/kg p.o.), the “Reduction in Plasma Glucose Day 1 (6 hr) p.o.” value is −8% and the “Reduction in Plasma Glucose Day 3 (6 hr) p.o.” value was −22%.
Taken in the same sequence, the figures for `O=S(=O)(Nc1cccc(CCOCc2ccc(-c3ccc(Cl)c(Cl)c3)cc2)c1)C(F)(F)F` [Example 6, N-{3-[2-(3′,4′-Dichloro-biphenyl-4-ylmethoxy)-ethyl]-phenyl}-C,C,C-trifluoro-methanesulfonamide] were 74 to 75 °C, 2300 nM, −16% and −24%.
